Consider 3 molecules from patent US6603023B2 (priority 1996, dated 2003).

Where a name gives a salt, the structure may show the parent alone.

A short description of data set [1]: Stability in human plasma (HPLC). It counts as in vitro ADME. Here is the method: Sample Preparation. To 300 microliters of spiked plasma are added 30 microliters of methanol. The mixture is agitated and allowed to stand for 2 minutes. Then 600 microliters of methanol are added. The mixture is centrifuged. The supernatant is removed for analysis by HPLC. Analyses were performed under the following chrmotographic conditions: Column: Nova-Pak C18, 15 cm. Eluant: 50% acetonitrile/water with 0.8% triethylamine, 0.2% phosphoric acid. Detection: UV (250 nm).

The subject of another data set is CCRF-CEM. The data set can be described thus: Drug combination analysis (combination index, XTT, 72 h). It counts as cell-based. The conditions noted are these: Homo sapiens, median-effect parameter, read-out: Dm (IC50). (Formazan colour is commonly taken as a measure of viable cells.)
The nature of a further data set: in vivo. The conditions noted are these: male, athymic nude (nu/nu), outbred, Swiss background, mouse, in vivo, ip. Here is the method:
DMSO was used as a vehicle for epothilones. Each mouse received ≦40 μL DMSO in all experiments.
Athymic nude mice (nu/nu) were used for MX-1 and MCF-7/Adr human mammary carcinoma xenografts. Mice were obtained from Taconic Laboratory Animals and Service (Germantown, N.Y.: outbred, Swiss background).

Take `C/C1=C/C[C@@H](/C(C)=C/c2csc(C)n2)OC(=O)C[C@H](O)C(C)(C)C(=O)[C@H](C)[C@@H](O)[C@@H](C)CCC1` [Desoxyepothilone B, desoxyepothilone B]: in data set [1], the “half-life in human plasma” value is given as “about 75 hours”.

By IC50 is commonly meant the point on the concentration scale where inhibition reaches its midpoint. For orientation: LD50 means the dose at which mortality reaches 50%. As for `CC(=O)O[C@H]1C(=O)[C@@]2(C)[C@H]([C@H](OC(=O)c3ccccc3)[C@]3(O)C[C@H](OC(=O)[C@H](O)[C@@H](NC(=O)c4ccccc4)c4ccccc4)C(C)=C1C3(C)C)[C@]1(OC(C)=O)CO[C@@H]1C[C@@H]2O` [Taxol ®, paclitaxel], the IC50 in the data set on CCRF-CEM came out at 1.09 nM. This molecule also gave a 50% lethal dose (LD50) in the data set “in vivo” of 12 mg/kg.

`CC[C@]1(O)C[C@@H]2CN(CCc3c([nH]c4ccccc34)[C@@](C(=O)OC)(c3cc4c(cc3OC)N(C)[C@H]3[C@@](O)(C(=O)OC)[C@H](OC(C)=O)[C@]5(CC)C=CCN6CC[C@]43[C@@H]65)C2)C1` [Vinblastine, Vinblastine sulfate]: in the data set on CCRF-CEM, the IC50 came to 0.61 nM.
